Measurements from patent US20050143296A1, “Extraction and utilization of cell growth-promoting peptides from silk protein” (priority 2003, published 2005).
“Also recorded” adds a separate entry of the source. Where a SMILES comes first, the peptide text is derived from it. Where no end group is shown, it is not given here.

Legend:
[1] = Dissolution of synthetic peptides in PBS for coating; assay type: physicochemical; settings: about 1 mg peptide in 200 μl of PBS
Procedure: About 1 mg each of the synthetic peptides was dissolved in 200 μl of PBS. The dissolved peptide solutions were diluted with 70% ethanol to adjust to 0.025% and 0.0025% concentrations, and 1 ml each of these solutions were put in dishes and dried.
70% ethanol, put in a dish and dried.

[2] = system: human skin fibroblasts; test: Growth of human skin fibroblasts in dishes coated with silk fractions or peptides (low serum medium with LSGS, Alamer Blue viable cell number); assay type: cell-based; settings: for Growth rate (%): control = 100; for cell growth promotion (in words): human skin fibroblasts in coated dishes, compared to control without peptide
Procedure: Only 1 ml of 70% ethanol was added to dishes for control.
The cells used were human skin fibroblasts (originating from adult normal skin) purchased (frozen) from Sanko Junyaku Co., Ltd.
The medium was added at 2 ml per dish, and 80,000 cells were inoculated and cultured for 3 days.
The medium at 2 ml per dish and Alamer Blue (Iwaki Glass Co.) at 0.1 ml per dish were added and cultured for 2 hours at 37 degrees C., and then the reduced amount of Alamer Blue dye calculated from the absorbances at 570 nm and 600 nm was correlated with viable cell number.
Control dishes contained only 70% ethanol at 1 ml, followed by air-drying.
About 1 mg each of the synthetic peptides was dissolved in 200 μl of PBS.
The cells used were human skin fibroblasts (originating from adult normal skin) purchased (frozen) from Sanko Junyaku Co. Ltd.
The culture medium used was the low serum culture medium for human skin fibroblast growth purchased from Kurabo Industries Ltd.
The medium was added at 2 ml per dish, and ca. 80,000 cells were inoculated and cultured for 3 days.
Then, 0.1 ml of Alamer Blue (Iwaki Glass Co.) was added and cultured for 2 hours at 37 degrees C., and the reduced amount of Alamer Blue calculated from the absorbances at 570 nm and 600 nm was correlated with viable cell number.

[3] = system: human skin fibroblasts; test: Adhesion of human skin fibroblasts after 5 hours in peptide-coated dishes (Medium 106S without LSGS); assay type: cell-based; settings: Table 8; 5 hour-culture; peptide 0.025 μg/cm^2; no LSGS; no peptide = 100
Procedure: (§1) This method partly differs from the method in (3) Cell culture of Example 1.
(§2) In the present cell culture, the cells used were human skin fibroblasts (originating from adult normal skin) purchased (frozen) from Sanko Junyaku Co. Ltd.
(§3) The culture medium used was the low serum culture medium for human skin fibroblast growth purchased from Kurabo Industries Ltd. (Medium 106S 500 ml).
(§4) The medium 106S is a basal medium for skin fibroblasts.
(§5) LSGS (low serum growth supplement) was not used here.
In the measurement of adhesion, the cells floating in the medium at 5 hours after inoculation of cells into the medium were removed, and the viable cell number adhering to the bottom of a dish was measured.
(§6) Besides the cell culture method, coating of peptides on cell culture dishes, measurement of viable cell number with Alamer Blue dye, and the like were carried out as described in Example 1.
(§7) In this case, the concentration of each peptide coated on dishes was 0.025 μg/cm^2.
The adhesion rate (%) in the case where no peptide was coated was set at 100.

[4] = system: human skin fibroblasts; test: Proliferation of human skin fibroblasts after 3-day culture in peptide-coated dishes (Medium 106S without LSGS); assay type: cell-based; settings: Table 9, peptide 0.025 μg/cm^2, no LSGS, no peptide = 100
Procedure: as §1, §2, §3, §4, §5
In the measurement of proliferation, the viable cell number at 3 days after inoculation of cells into the medium was measured.
as §6, §7
The growth rate (%) in the case where no peptide was coated was set at 100.
It should be noted that the viable cell number in the control in 3-day culturing increased about 150% during the culture and the control value (100%) was based on the viable cell number after 3-day culture.
Accordingly, when there was no increase or decrease in the cell number after 3-day culturing, the growth rate would become about 70%.

[5] = system: human skin fibroblasts; test: Growth of human skin fibroblasts in dishes coated with silk fractions or peptides (low serum medium with LSGS, Alamer Blue viable cell number); assay type: cell-based; settings: for Growth rate (%): Table 3, gel filtration peaks of A-6, cultured for 2 days, control = 100; for growth rate relative to the growth of the control: after 2-day culture (Table 3)
[6] = Table 7, peptide concentration 0.025 μg/cm^2, 3-day culture
[7] = Table 5, synthetic peptide 0.0025%, 3-day culture
[8] = Table 5, synthetic peptide 0.025%, 3-day culture
[9] = Table 6, values of Tables 4 and 5 at higher peptide concentration (0.025%)

| Compound | Cell growth rate (%) [2, 6] [%] | Cell growth rate (%) [2, 9] [%] | Adhesion rate (%) [3] [%] | Growth rate (%) [4] [%] | further results |
| --- | --- | --- | --- | --- | --- |
| C[C@H](N)C(=O)N[C@@H](C)C(=O)N[C@@H](C)C(=O)N[C@@H](C)C(=O)N[C@@H](C)C(=O)N[C@@H](C)C(=O)N[C@@H](C)C(=O)N[C@@H](C)C(=O)N[C@@H](C)C(=O)N[C@@H](C)C(=O)O [AfH0, Ala Ala Ala Ala Ala Ala Ala Ala Ala Ala] | – | – | – | – | solubility (in words) [1]: hard to dissolve |
| N[C@@H](CCC(=O)O)C(=O)O [Glu, glutamic acid, reference compound] | 69 | – | – | – | – |
| C[C@H](NC(=O)CN)C(=O)NCC(=O)N[C@@H](C)C(=O)NCC(=O)N[C@@H](CO)C(=O)NCC(=O)N[C@@H](C)C(=O)NCC(=O)N[C@@H](C)C(=O)NCC(=O)N[C@@H](CO)C(=O)NCC(=O)N[C@@H](C)C(=O)NCC(=O)N[C@@H](C)C(=O)NCC(=O)N[C@@H](Cc1ccc(O)cc1)C(=O)NCC(=O)N[C@@H](C)C(=O)NCC(=O)N[C@@H](Cc1ccc(O)cc1)C(=O)O [SfHC-1] (H-GAGAGSGAGAGSGAGAGYGAGY-OH; N-terminus and C-terminus assumed) | – | – | – | – | solubility (in words) [1]: difficult to dissolve |
| C[C@H](NC(=O)CN)C(=O)NCC(=O)N[C@@H](C)C(=O)NCC(=O)N[C@@H](CO)C(=O)NCC(=O)N[C@@H](C)C(=O)N[C@@H](C)C(=O)N[C@@H](CO)C(=O)NCC(=O)N[C@@H](C)C(=O)NCC(=O)N[C@@H](C)C(=O)NCC(=O)N[C@@H](C)C(=O)NCC(=O)N[C@@H](C)C(=O)NCC(=O)N[C@@H](C)C(=O)NCC(=O)N[C@H](C(=O)O)[C@@H](C)O [SfHC-2] (H-GAGAGSGAASGAGAGAGAGAGT-OH; N-terminus and C-terminus assumed) | – | – | – | – | solubility (in words) [1]: difficult to dissolve |
| CC(C)[C@H](NC(=O)[C@H](CO)NC(=O)[C@H](CO)NC(=O)[C@H](C)NC(=O)[C@H](C)N)C(=O)N[C@@H](CO)C(=O)N[C@@H](CO)C(=O)N[C@@H](C)C(=O)N[C@@H](CO)C(=O)N[C@@H](CO)C(=O)N[C@@H](CCCNC(=N)N)C(=O)N[C@@H](CO)C(=O)N[C@@H](Cc1ccc(O)cc1)C(=O)N[C@@H](CC(=O)O)C(=O)N[C@@H](Cc1ccc(O)cc1)C(=O)N[C@@H](CO)C(=O)N[C@@H](CCCNC(=N)N)C(=O)N[C@@H](CCCNC(=N)N)C(=O)N[C@@H](CC(N)=O)C(=O)N[C@H](C(=O)N[C@@H](CCCNC(=N)N)C(=O)N[C@@H](CCCCN)C(=O)N[C@@H](CC(N)=O)C(=O)O)C(C)C [SfHE] (H-AASSVSSASSRSYDYSRRNVRKN-OH; N-terminus and C-terminus assumed) | – | – | – | – | solubility (in words) [1]: difficult to dissolve |
| DDGFVLDGGYDSE [AfH7] | – | 284 | 153 | 89 | Growth rate (%) [2, 7]: 155 ± 5.3%; Growth rate (%) [2, 8]: 284 ± 25.1%; cell growth promotion (in words) [2]: excellent cell growth promotion |
| DEDEDE | 322 | – | 229 | – | – |
| DEYVDN [AfH5] | – | 344 | 234 | 108 | Growth rate (%) [2, 7]: 192 ± 11.3%; Growth rate (%) [2, 8]: 344 ± 7.7%; cell growth promotion (in words) [2]: excellent cell growth promotion |
| EEEEEE | 346 | – | – | – | – |
| EEYEEY | 212 | – | – | – | – |
| EYEYEY | 207 | – | – | – | – |
| GSGAGGRGDGGYGSGSS [AfH3] | – | 194 | 174 | 69 | Growth rate (%) [2, 7]: 111 ± 9.0%; Growth rate (%) [2, 8]: 194 ± 24.5% |
| GSSGFGPYVAHGGYSGYEYAWSSESDFGT [SfHA] | – | 316 | 205 | 159 | Growth rate (%) ([2]; Table 4, synthetic peptide 0.0025%, 3-day culture): 321 ± 6.2%; Growth rate (%) ([2]; Table 4, synthetic peptide 0.025%, 3-day culture): 316 ± 5.7% |
| Glu Glu | 159 | – | – | – | – |
| Glu Glu Glu Glu (EEEE; printed: Glu Glu Glu Glu) | 231 | – | – | – | – |
| Glu Glu Glu Glu Glu Glu Glu Glu Glu Glu | 254 | – | – | – | – |
| NINDFDED [A-6-6] | – | – | – | – | cell growth promotion (in words) [2]: showed cell growth promotion; Growth rate (%) [5]: 159 ± 6.6%; growth rate relative to the growth of the control [5]: 1.5 fold |
| RRAGHDRAAGS [AfH4] | – | 133 | 151 | 96 | Growth rate (%) [2, 7]: 113 ± 4.8%; Growth rate (%) [2, 8]: 133 ± 8.7% |
| SGAGGSGGYGGYGSDS [AfH2] | – | 196 | 149 | 71 | Growth rate (%) [2, 7]: 118 ± 14.7%; Growth rate (%) [2, 8]: 196 ± 9.4% |
| Tyr Tyr | 113 | – | – | – | – |
| Tyr Tyr Tyr Tyr (YYYY; printed: Tyr Tyr Tyr Tyr) | 156 | – | – | – | – |
| VETIVLEEDPYGHEDIYEED [AfH6] | – | 264 | 135 | 77 | Growth rate (%) [2, 7]: 152 ± 9.0%; Growth rate (%) [2, 8]: 264 ± 9.0%; cell growth promotion (in words) [2]: higher cell growth promotion; also recorded: excellent cell growth promotion |
| VITTDSDGNE [A-6-2] | – | – | – | – | cell growth promotion (in words) [2]: showed cell growth promotion; Growth rate (%) [5]: 153 ± 2.7%; growth rate relative to the growth of the control [5]: 1.5 fold |
| YGWGDGGYGSDS [AfH1] | – | 396 | 169 | 94 | Growth rate (%) [2, 7]: 179 ± 13.5%; Growth rate (%) [2, 8]: 396 ± 4.0%; cell growth promotion (in words) [2]: excellent cell growth promotion |
| YYYYYY | 239 | – | – | – | – |
